Laboratory results published in patent US20150164895A1, “DETERMINING SENSITIVITY OF CELLS TO B-RAF INHIBITOR TREATMENT BY DETECTING KRAS MUTATION AND RTK EXPRESSION LEVELS” (GENENTECH, INC., priority 2009, published 2015).

What was measured:
[1] = system: Venus-C-RAF / CFP-K-RAS in HEK293T cells; experiment: C-RAF plasma membrane translocation, live cell confocal imaging; assay type: cell-based; parameters: dose or concentration left out as unconfirmed
From the text: Aliquots of the membrane and cytosolic fractions were immunoblotted with the indicated antibodies. (B) HEK293T cells were transiently transfected with Venus-C-RAF (green), CFP-K-RAS (red) and mCherry-H2B (blue).

[2] = system: pERK in BRAF V600E cells expressing EGFR; experiment: pERK MSD assay, basal and EGF-stimulated; assay type: cell-based; details: serum starved, -EGF or +EGF
Protocol: (A) Table of genotype and EGFR levels among lines tested. (B) Measurement of basal and stimulated pERK levels: cells were treated with […] compound in serum free media for 1 hour. For stimulation 20 ng/ml EGF was added for 5 min before cells were lysed. Lysates were transferred to an MSD plate where phospho- and total ERK levels were measured. (C) pERK IC50 data are plotted for the two Raf inhibitors (CHR-265, 1-methyl-5-[[2-[5-(trifluoromethyl)-1H-imidazol-2-yl]-4-pyridinyl]oxy]-N-[4-(trifluoromethyl)phenyl]-1H-Benzimidazol-2-amine and GDC-0879) under basal and EGF-stimulated conditions.
FIG. 29 summarizes certain RAF inhibitor (GDC-0879, PLX-4720 and “Raf inh a” which is 2,6-difluoro-N-(3-methoxy-1H-pyrazolo[3,4-b]pyridin-5-yl)-3-(propylsulfonamido)benzamide) potencies for blocking cellular pERK induction in response to EGF stimulation.

[3] = system: HT-29 BRAF V600E human colorectal carcinoma xenografts; experiment: HT-29 xenograft combination efficacy; assay type: in vivo, NCR nude (Taconic) mice; details: RAF inh a and Tarceva given in combination
Protocol: (§1) In FIG. 34A, RAF inh a was given at 100 mg/kg with increasing doses of Tarceva. In FIG. 34B, Tarceva was given to all animals with increasing concentrations of RAF inh a. […] In FIG. 34C, lysates from tumors treated with the indicated doses of inhibitors in FIGS. 34A and B were analyzed for phospho-ERK (pERK) levels by western blot.

[4] = system: phospho-ERK (pERK) levels in HT-29 tumors; experiment: phospho-ERK western blot of HT-29 tumor lysates; assay type: in vivo; details: RAF inhibitor a and Tarceva co-administered in mice
Protocol: as §1

B-RAFV600E cells = experiment: Cellular proliferation of B-RAFV600E cells in presence of EGF, single agents and combinations; assay type: cell-based; details: in combination with RAF inhibitor; 20 ng/ml EGF in the media
Protocol: (A) Cells were treated with […] compound in serum free media for 1 hour. For stimulation 20 ng/ml EGF was added for 5 min before cells were lysed. Lysates were transferred to an MSD plate where phospho- and total MEK levels were measured. […] Cells were dosed with indicated inhibitors, either alone or in combination in the presence of 20 ng/ml EGF in the media.

CX-1 cells = experiment: Combination study of RAF inhibitor and Tarceva in colon tumor lines; assay type: cell-based; details: Tarceva administered together with RAF inhibitor; CX-1 (high EGFR)
From the text: FIGS. 32A-C depict combination studies of RAF inhibitor and EGFR inhibitor (Tarceva) in colon tumor lines with different levels of EGFR expression.
In FIG. 32C, the effects of combination treatment of CX-1 cells with either RAF inhibitor alone, Tarceva alone or combination of RAF inhibitor and Tarceva are shown. Neither RAF inhibitor alone nor Tarceva alone suppress proliferation as effectively as the combination. Both inhibitors show good synergy when administered together to CX-1 cells.

SMILES | blocking wildtype RAF signaling / selectivity (pERK induction in response to EGF) [2] | antitumor efficacy in combination [3] | phospho-ERK levels in the tumors [4] | resistance of cellular proliferation to RAF inhibitors under EGF (B-RAFV600E cells) | other results
Cc1ccc(NC(=O)c2cccc(C(C)(C)C#N)c2)cc1Nc1ccc2ncn(C)c(=O)c2c1 [AZ-628, 3-(2-cyanopropan-2-yl)-N-(4-methyl-3-(3-methyl-4-oxo-3,4-dihydroquinazolin-6-ylamino)phenyl)benzamide] |  |  |  |  | Venus-tagged C-RAF membrane translocation [1]: co-localizes with CFP-KRAS on the plasma membrane
CCCS(=O)(=O)Nc1ccc(F)c(C(=O)Nc2cnc3[nH]nc(OC)c3c2)c1F [Raf inh a, 2,6-difluoro-N-(3-methoxy-1H-pyrazolo[3,4-b]pyridin-5-yl)-3-(propylsulfonamido)benzamide] | BRAF V600E selective | Increased efficacy | synergized in decreasing phospho-ERK levels |  | 
CCCS(=O)(=O)Nc1ccc(F)c(C(=O)c2c[nH]c3ncc(Cl)cc23)c1F [PLX4720, N-[3-[(5-chloro-1H-pyrrolo[2,3-b]pyridin-3-yl)carbonyl]-2,4-difluorophenyl]-1-propanesulfonamide] | BRAF V600E selective |  |  |  | 
O=C(NOC[C@H](O)CO)c1ccc(F)c(F)c1Nc1ccc(I)cc1F [PD-0325901] |  |  |  | overcomes that resistance | 
C#Cc1cccc(Nc2ncnc3cc(OCCOC)c(OCCOC)cc23)c1 [Tarceva, erlotinib] |  | Increased efficacy | synergized in decreasing phospho-ERK levels | overcomes that resistance | suppression of proliferation, combination effect (CX-1 cells): good synergy
